# Source: patent US8709821B2, “Luminescent substrate for liciferase” (The University of Electro-Communications, priority 2008, dated 2014)
# Values joined by “and” are separate entries in the source; they are usually repeats but may differ in a detail not shown here. Equal entries are not always repeated.
# Key:
# [1] = luciferin derivative, patent document 1; cited from earlier work
# [2] = target: T1, luciferase (derived from Photinus pyralis of North America product firefly) (Photinus pyralis, UniProt P08659); test: Measurement of the bioluminescence spectra (luminescent spectrum of substrate with luciferase, ATP-Mg); assay type: biochemical; conditions: for luminescent wavelength (maximum wavelength of the bioluminescence spectrum): potassium phosphate buffer pH 8.0, substrate solution 2.5 mM, exposure 60 seconds; for color of the luminescence: FIG. 1
# T1 construct: purchased Sigma-Aldrich Corporation or Promega KK
# T1 sequence (P08659 whole entry): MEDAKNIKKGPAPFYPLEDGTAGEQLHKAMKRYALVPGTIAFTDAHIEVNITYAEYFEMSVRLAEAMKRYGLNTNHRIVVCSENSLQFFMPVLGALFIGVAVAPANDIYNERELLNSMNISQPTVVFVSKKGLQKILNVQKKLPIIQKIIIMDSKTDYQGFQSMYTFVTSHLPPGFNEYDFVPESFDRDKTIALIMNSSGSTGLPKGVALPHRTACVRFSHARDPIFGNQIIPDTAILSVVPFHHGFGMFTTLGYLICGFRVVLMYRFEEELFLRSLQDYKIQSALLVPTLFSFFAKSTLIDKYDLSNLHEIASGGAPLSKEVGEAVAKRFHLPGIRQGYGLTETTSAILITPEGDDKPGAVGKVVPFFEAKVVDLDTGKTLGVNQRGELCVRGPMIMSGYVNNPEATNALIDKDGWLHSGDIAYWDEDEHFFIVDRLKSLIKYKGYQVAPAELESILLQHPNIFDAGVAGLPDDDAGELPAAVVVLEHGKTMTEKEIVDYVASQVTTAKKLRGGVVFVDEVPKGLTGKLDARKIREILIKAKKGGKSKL
# Description: Measurement of Luminescent Spectrum
# They were measured using feeble luminescence fluorescent spectra device AB-1850 manufactured by ATTO Co., Ltd. All the measured spectra were the spectra which calibrated with the characteristic of the detector.
# For the luciferase (derived from Photinus pyralis of North America product firefly), was used the recombination type manufactured by Sigma-Aldrich Corporation or Promega KK.
# For ATP-Mg the product manufactured by Sigma-Aldrich Corporation was used.
# The Substrate was weighted with an electronic balance, and it was diluted. The phosphate-buffered saline (50 mM, pH 6.0) was used in the case of the chemiluminescence measurement, and t-butanol was used in the case of the bioluminescence as a solvent.
# The luciferase was diluted with Tris-HCl buffer solution (50 mM, pH 8.0 s) to become 1 μg/μl and divided. This was used as stocked solution, so that was diluted to be used each time. Note that, the stock solutions were stored in a freezer of −80 degrees Celsius.
# ATP-Mg was diluted in the ultra pure water.
# The solution of a potassium phosphate buffer (0.5 M, pH 8.0, 20 μl), the solution of substrate (2.5 mM, 20 μl) and enzyme solution (20 μl), then ATP-Mg solution (ten mM, 40 μl) were mixed in a 200 μL of a polystyrene tube, and measured the luminescent spectrum. The enzyme solution was used at the concentration of 17 μM, provided that enzymes at 1.7 μM and at 170 μM were used in the firefly luciferin (1) and the phenol type luciferin respectively. The exposure time for the measurement of the luminescent spectrum was 60 seconds, provided that the firefly luciferin was five seconds.
# [3] = Photinus pyralis luciferase, ATP-Mg
Structure (SMILES),"luminescent wavelength (maximum wavelength of the bioluminescence spectrum) [2, 3]",melting point,color of the luminescence [2],other results
Nc1ccc2nc(C3=N[C@@H](C(=O)O)CS3)sc2c1 [Aminoluciferin],,,,luminescence wavelength [1]: About 610 nm
O=C(O)[C@H]1CSC(c2ccc(O)cc2)=N1 [analogs 7],415 nm,200 to 204 °C (dec.),,
O=C(O)[C@H]1CSC(/C=C/c2ccc(O)cc2)=N1 [analogs 8],520 nm,138 to 140 °C (dec.),,
O=C(O)[C@H]1CSC(/C=C/c2cccc(O)c2)=N1 [analogs 9],,163 to 165 °C (dec.),,"luminescent activity as substrate ([2]; Photinus pyralis luciferase, ATP-Mg, pH 8.0): did not luminescent"
"CN(C)c1ccc(/C=C/C=C/C2=N[C@@H](C(=O)O)CS2)cc1 [analogs II, dimethyl aniline-diene type luciferin]",445 nm and > 680 nm,,blue,
"CN(C)c1ccc(/C=C/C2=N[C@@H](C(=O)O)CS2)cc1 [analogs III, dimethyl aniline-monoene type luciferin]",565 nm,,yellow green,
"CN(C)c1ccc(C2=N[C@@H](C(=O)O)CS2)cc1 [analogs IV, dimethyl aniline type luciferin]",,,red,"luminescent wavelength (maximum wavelength of the bioluminescence spectrum) ([2]; Photinus pyralis luciferase, ATP-Mg, listed as IV): 680 nm and 445 nm; luminescent wavelength (maximum wavelength of the bioluminescence spectrum) ([2]; Photinus pyralis luciferase, ATP-Mg, listed as dimethyl aniline type luciferin): about 445 nm"
